# Measured values taken from US10537558B2 (Bantam Pharmaceutical, LLC, priority 2015, dated 2020).
# System: BJAB cells
# Assay: BJAB cell proliferation (Cell Titer Glo)
# Assay type: cell-based
# Conditions: Homo sapiens, read-out: EC50
# Summary of the method: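 EC50 values come from non-linear regression of luminescence (Cell Titer Glo), expressed relative to untreated wells. BJAB cells were incubated roughly 72 h at 37 °C with serial compound dilutions carrying 0.1% final DMSO.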
row,Structure (SMILES),EC50 [µM]
1,"CCCSc1sc(-n2nc(C)c(Cc3ccccc3[N+](=O)[O-])c2C(=O)O)nc1-c1ccc(Cl)c(Cl)c1 [Compound 10, 1-(4-(3,4-dichlorophenyl)-5-(propylthio)thiazol-2-yl)-3-methyl-4-(2-nitrobenzyl)-1H-pyrazole-5-carboxylic acid]",25 to 50
2,"Cc1nn(-c2nc(-c3ccc(Cl)c(Cl)c3)c(SC(C)C)s2)c(C(=O)NCc2ccccn2)c1-c1cc(C(F)(F)F)cc(C(F)(F)F)c1 [Compound 75, 4-(3,5-bis(trifluoromethyl)phenyl)-1-(4-(3,4-dichlorophenyl)-5-(isopropylthio)thiazol-2-yl)-3-methyl-N-(pyridin-2-ylmethyl)-1H-pyrazole-5-carboxamide]",> 40
3,"Cc1cc(-c2c(C)nn(-c3nc(-c4ccc(Cl)c(C)c4)c(SC(C)C)s3)c2C(=O)O)cc(C)n1 [Compound 190, 1-(4-(4-chloro-3-methylphenyl)-5-(isopropylthio)thiazol-2-yl)-4-(2,6-dimethylpyridin-4-yl)-3-methyl-1H-pyrazole-5-carboxylic Acid]",1 to 5
4,"Cc1nn(-c2nc(-c3ccc(Cl)c(Cl)c3)c(SC(C)C)s2)c(C(=O)N2CCC(CO)CC2)c1-c1cc(C(F)(F)F)cc(C(F)(F)F)c1 [Compound 141, (4-(3,5-bis(trifluoromethyl)phenyl)-1-(4-(3,4-dichlorophenyl)-5-(isopropylthio)thiazol-2-yl)-3-methyl-1H-pyrazol-5-yl)(4-(hydroxymethyl)piperidin-1-yl)methanone]",> 40
5,"Cc1nn(-c2nc(-c3ccc(Cl)c(Cl)c3)c(SC(C)C)s2)c(C(=O)O)c1-c1cc(O)cc(Cl)c1 [Compound 154, 4-(3-chloro-5-hydroxyphenyl)-1-(4-(3,4-dichlorophenyl)-5-(isopropylthio)thiazol-2-yl)-3-methyl-1H-pyrazole-5-carboxylic Acid]",10 to 25
6,"Cc1nn(-c2nc(C3=CCCC3)c(SC(C)C)s2)c(C(=O)O)c1-c1cccc(F)c1 [Compound 184, 1-(4-(cyclopent-1-en-1-yl)-5-(isopropylthio)thiazol-2-yl)-4-(3-fluorophenyl)-3-methyl-1H-pyrazole-5-carboxylic acid]",10 to 25
7,"Cc1cc(-c2c(C)nn(-c3nc(-c4ccc(Cl)c(Cl)c4)c(SC(C)C)s3)c2C(=O)O)cc(N2CCC2)n1 [Compound 101, 4-(2-(azetidin-1-yl)-6-methylpyridin-4-yl)-1-(4-(3,4-dichlorophenyl)-5-(isopropylthio)thiazol-2-yl)-3-methyl-1H-pyrazole-5-carboxylic acid]",1 to 5
8,"Cc1nn(-c2nc(-c3ccc(Cl)c(Cl)c3)c(SC(C)C)s2)c(C(=O)O)c1-c1ccc(C(F)(F)F)cc1 [Compound 52, 1-(4-(3,4-dichlorophenyl)-5-(isopropylthio)thiazol-2-yl)-3-methyl-4-(4-(trifluoromethyl)phenyl)-1H-pyrazole-5-carboxylic Acid]",10 to 25
9,"Cc1nn(-c2nc(-c3ccc(Cl)c(Cl)c3)c(SC(C)C)s2)c(C(=O)O)c1-c1cncc(C#N)c1 [Compound 69, 4-(5-cyanopyridin-3-yl)-1-(4-(3,4-dichlorophenyl)-5-(isopropylthio)thiazol-2-yl)-3-methyl-1H-pyrazole-5-carboxylic Acid]",10 to 25
10,"Cc1nn(-c2nc(-c3ccccc3C#N)c(SC(C)C)s2)c(C(=O)O)c1-c1cccc(F)c1 [Compound 215, 1-(4-(2-cyanophenyl)-5-(isopropylthio)thiazol-2-yl)-4-(3-fluorophenyl)-3-methyl-1H-pyrazole-5-carboxylic acid]",25 to 50
11,"COc1cc(-c2nc(-n3nc(C)c(-c4cccc(F)c4)c3C(=O)O)sc2SC(C)C)ccc1Cl [Compound 195, 1-(4-(4-chloro-3-methoxyphenyl)-5-(isopropylthio)thiazol-2-yl)-4-(3-fluorophenyl)-3-methyl-1H-pyrazole-5-carboxylic Acid]",5 to 10
12,"Cc1cc(-c2c(C)nn(-c3nc(-c4ccc(Cl)c(Cl)c4)c(SC(C)C)s3)c2C(=O)O)sn1 [Compound 92, 1-(4-(3,4-dichlorophenyl)-5-(isopropylthio)thiazol-2-yl)-3-methyl-4-(3-methylisothiazol-5-yl)-1H-pyrazole-5-carboxylic Acid]",1 to 5
13,"COc1ccccc1-c1nc(-n2nc(C)c(-c3cc(C)nc(C)c3)c2C(=O)O)sc1SC(C)C [Compound 34, 4-(2,6-dimethylpyridin-4-yl)-1-(5-(isopropylthio)-4-(2-methoxyphenyl)thiazol-2-yl)-3-methyl-1H-pyrazole-5-carboxylic acid]",5 to 10
14,"Cc1cc(C)cc(-c2c(C)nn(-c3nc(-c4ccc(Cl)c(Cl)c4)c(SC(C)C)s3)c2C(=O)O)c1 [Compound 143, 1-(4-(3,4-dichlorophenyl)-5-(isopropylthio)thiazol-2-yl)-4-(3,5-dimethylphenyl)-3-methyl-1H-pyrazole-5-carboxylic Acid]",1 to 5
15,"Cc1nn(-c2nc(-c3ccc(Cl)c(Cl)c3)c(SC(C)C)s2)c(C(=O)O)c1-c1cc(F)cc(Cl)c1 [Compound 225, 4-(3-chloro-5-fluorophenyl)-1-(4-(3,4-dichlorophenyl)-5-(isopropylthio)thiazol-2-yl)-3-methyl-1H-pyrazole-5-carboxylic acid]",< 1
16,"Cc1nn(-c2nc(-c3ccc(Cl)c(Cl)c3)c(SC(C)C)s2)c(C(=O)O)c1-c1cnn2cccnc12 [Compound 65, 1-(4-(3,4-dichlorophenyl)-5-(isopropylthio)thiazol-2-yl)-3-methyl-4-(pyrazolo[1,5-a]pyrimidin-3-yl)-1H-pyrazole-5-carboxylic acid]",25 to 50
17,"Cc1nn(-c2nc(-c3cnn(CC(F)(F)F)c3)c(SC(C)C)s2)c(C(=O)O)c1-c1cccc(F)c1 [Compound 259, 4-(3-fluorophenyl)-1-(5-(isopropylthio)-4-(1-(2,2,2-trifluoroethyl)-1H-pyrazol-4-yl)thiazol-2-yl)-3-methyl-1H-pyrazole-5-carboxylic acid]",10 to 25
18,"CC(C)Sc1sc(-n2nc(C(C)C)c(-c3cccc(F)c3)c2C(=O)O)nc1-c1ccc(Cl)c(Cl)c1 [Compound 228, 1-(4-(3,4-dichlorophenyl)-5-(isopropylthio)thiazol-2-yl)-4-(3-fluorophenyl)-3-isopropyl-1H-pyrazole-5-carboxylic Acid]",1 to 5
19,"Cc1cc(C)nc(-c2c(C)nn(-c3nc(-c4ccc(Cl)c(Cl)c4)c(SC(C)C)s3)c2C(=O)O)n1 [Compound 74, 1-(4-(3,4-dichlorophenyl)-5-(isopropylthio)thiazol-2-yl)-4-(4,6-dimethylpyrimidin-2-yl)-3-methyl-1H-pyrazole-5-carboxylic acid]",25 to 50
20,"COC(=O)c1c(Cc2ccccc2NS(C)(=O)=O)c(C)nn1-c1nc(-c2ccc(Cl)c(Cl)c2)cs1 [Compound 7, methyl 1-(4-(3,4-dichlorophenyl)thiazol-2-yl)-3-methyl-4-(2-(methylsulfonamido)benzyl)-1H-pyrazole-5-carboxylate]",> 80
21,"Cc1nn(-c2nc(-c3cnc(C(F)(F)F)nc3)c(SC(C)C)s2)c(C(=O)O)c1-c1cccc(F)c1 [Compound 242, 4-(3-fluorophenyl)-1-(5-(isopropylthio)-4-(2-(trifluoromethyl)pyrimidin-5-yl)thiazol-2-yl)-3-methyl-1H-pyrazole-5-carboxylic Acid]",5 to 10
22,"Cc1cc(C(F)(F)F)ccc1-c1nc(-n2nc(C)c(-c3cccc(F)c3)c2C(=O)O)sc1SC(C)C [Compound 217, 4-(3-fluorophenyl)-1-(5-(isopropylthio)-4-(2-methyl-4-(trifluoromethyl)phenyl)thiazol-2-yl)-3-methyl-1H-pyrazole-5-carboxylic acid]",< 1
23,"COc1cccc(-c2nc(-n3nc(C)c(Cc4ccccc4[N+](=O)[O-])c3C(=O)O)sc2SC(C)C)c1 [Compound 103, 1-(5-(isopropylthio)-4-(3-methoxyphenyl)thiazol-2-yl)-3-methyl-4-(2-nitrobenzyl)-1H-pyrazole-5-carboxylic Acid]",> 80
24,"Cc1nn(-c2nc(-c3ccc(C(F)F)cc3)c(SC(C)C)s2)c(C(=O)O)c1-c1cccc(F)c1 [Compound 229, 1-(4-(4-(difluoromethyl)phenyl)-5-(isopropylthio)thiazol-2-yl)-4-(3-fluorophenyl)-3-methyl-1H-pyrazole-5-carboxylic acid]",1 to 5
25,"CCc1ccc(-c2nc(-n3nc(C)c(-c4cccc(F)c4)c3C(=O)O)sc2SC(C)C)cc1 [Compound 231, 1-(4-(4-ethylphenyl)-5-(isopropylthio)thiazol-2-yl)-4-(3-fluorophenyl)-3-methyl-1H-pyrazole-5-carboxylic Acid]",1 to 5
26,"COc1ccc(-c2nc(-n3nc(C)c(-c4cc(C)nc(C)c4)c3C(=O)O)sc2SC(C)C)cc1 [Compound 36, 4-(2,6-dimethylpyridin-4-yl)-1-(5-(isopropylthio)-4-(4-methoxyphenyl)thiazol-2-yl)-3-methyl-1H-pyrazole-5-carboxylic acid]",10 to 25
27,"COc1cccc(-c2c(C)nn(-c3nc(-c4ccc(Cl)c(Cl)c4)c(SC(C)C)s3)c2C(=O)O)c1 [Compound 115, 1-(4-(3,4-dichlorophenyl)-5-(isopropylthio)thiazol-2-yl)-4-(3-methoxyphenyl)-3-methyl-1H-pyrazole-5-carboxylic Acid]",1 to 5
28,"Cc1nn(-c2nc(-c3cccc4[nH]ccc34)c(SC(C)C)s2)c(C(=O)O)c1-c1cccc(F)c1 [Compound 168, 1-(4-(1H-indol-4-yl)-5-(isopropylthio)thiazol-2-yl)-4-(3-fluorophenyl)-3-methyl-1H-pyrazole-5-carboxylic acid]",> 25
29,"Cc1nn(-c2nc(-c3ccc(Cl)c(Cl)c3)c(SC(C)C)s2)c(C(=O)Nc2nnn[nH]2)c1-c1cc(C(F)(F)F)cc(C(F)(F)F)c1 [Compound 81, 4-(3,5-bis(trifluoromethyl)phenyl)-1-(4-(3,4-dichlorophenyl)-5-(isopropylthio)thiazol-2-yl)-3-methyl-N-(1H-tetrazol-5-yl)-1H-pyrazole-5-carboxamide]",> 40
30,"Cc1nn(-c2nc(C#CC3CC3)c(SC(C)C)s2)c(C(=O)O)c1-c1cccc(F)c1 [Compound 171, 1-(4-(cyclopropylethynyl)-5-(isopropylthio)thiazol-2-yl)-4-(3-fluorophenyl)-3-methyl-1H-pyrazole-5-carboxylic acid]",> 25
